Experimental data reported in patent US11840528B2 (Hoffmann-La Roche Inc., priority 2018, dated 2023).

Experiments:
[1] = biological target: T1, h-GABA-A α5β3γ2 (Homo sapiens, UniProt P18507+P31644); assay: [3H]flumazenil competition binding assay, membranes of HEK293 cells expressing GABAA receptors; settings: displacement of [3H]-Flumazenil 0.5 nM, HEK293 cells expressing human receptors, mean of two determinations; Table 1
Outline: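 Receptor source: human α5β3γ2 transiently transfected into HEK293 cells, membranes in pH 7.5 Krebs-tris. Filtration through GF/C, then scintillation counting.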

[2] = biological target: T1, h-GABA-A α5β3γ2; assay: Two-electrode voltage clamp electrophysiology in Xenopus laevis oocytes expressing GABAA receptors, modulation of GABA EC20 current; type: cell-based; set-up: host or cells: Xenopus laevis oocytes micro-injected with RNA transcripts of the subunits; settings: Table 1; for Efficacy (GABA) %: % modulation of GABA EC20 = 100*(Fold increase-1); for Fold increase h-GABA-A α5β3γ2 oocyte: test compound at approx. 30 fold its Ki, GABA at EC20
Outline: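 Modulation is reported as % of the GABA EC20 current, calculated as 100*(Fold increase−1) from the peak ratio between a second GABA response carrying compound (applied at roughly 30-fold Ki) and a preceding control response. Oocytes expressing human α5β3γ2 were clamped at −80 mV at room temperature, 3–5 days after injection.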

| Structure (SMILES) | Ki [1] [nM] | Efficacy (GABA) % [2] [%] | Fold increase h-GABA-A α5β3γ2 oocyte [2] |
| --- | --- | --- | --- |
| Cc1ccc(-c2noc(C)c2Cn2ncc(-c3ccc(N(C)C)nc3)cc2=O)cn1 [Example 116, 5-[6-(dimethylamino)-3-pyridyl]-2-((5-methyl-3-(6-methyl-3-pyridyl)isoxazol-4-yl)methyl)pyridazin-3-one] | 30.8 | 84 | 1.84 |
| Cc1ccc(-c2noc(C)c2Cn2ncc(-c3ccnc(C)c3)cc2=O)cn1 [Example 106, 2-((5-methyl-3-(6-methylpyridin-3-yl)isoxazol-4-yl)methyl)-5-(2-methylpyridin-4-yl)pyridazin-3(2H)-one] | 6.2 | 136 | 2.36 |
| Cc1ccc(-c2noc(C)c2Cn2ncc(-c3cnn(C4CC4)c3)cc2=O)cn1 [Example 152, 5-(1-cyclopropyl-1H-pyrazol-4-yl)-2-((5-methyl-3-(6-methylpyridin-3-yl)isoxazol-4-yl)methyl)pyridazin-3(2H)-one] | 28.7 | 116 | 2.16 |
| Cc1ccc(-c2noc(C)c2Cn2ncc(N3CC(OC4CC4)C3)cc2=O)cn1 [Example 136, 5-[3-(cyclopropoxy)azetidin-1-yl]-2-[[5-methyl-3-(6-methyl-3-pyridyl)isoxazol-4-yl]methyl]pyridazin-3-one] | 5.2 | 96 | 1.96 |
| Cc1onc(-c2ccc(Cl)nc2)c1Cn1ncc(N2CC3(CCC(F)CO3)C2)cc1=O (single isomer, unassigned) [Example 297] | 10.7 | 130 | 2.3 |
| Cc1ccc(-c2noc(C)c2Cn2ncc(N(C)C3CC3)cc2=O)cn1 [Example 64, 5-(cyclopropyl(methyl)amino)-2-((5-methyl-3-(6-methylpyridin-3-yl)isoxazol-4-yl)methyl)pyridazin-3(2H)-one] | 1.8 | 108 | 2.08 |
| Cc1onc(-c2ncc(C(F)(F)F)cn2)c1Cn1ncc(N2CC3(C2)CC(F)(F)CO3)cc1=O [Example 250, 5-(7,7-difluoro-5-oxa-2-azaspiro[3.4]octan-2-yl)-2-((5-methyl-3-(5-(trifluoromethyl)pyrimidin-2-yl)isoxazol-4-yl)methyl)pyridazin-3(2H)-one] | 3.3 | 46 | 1.46 |
| COc1cc(-c2cnn(Cc3c(-c4cnc(C)c(F)c4)noc3C)c(=O)c2)ccn1 [Example 207, 2-((3-(5-fluoro-6-methylpyridin-3-yl)-5-methylisoxazol-4-yl)methyl)-5-(2-methoxypyridin-4-yl)pyridazin-3(2H)-one] | 14.8 | 75 | 1.75 |
| Cc1ccc(-c2noc(C)c2Cn2ncc(N3CCC(n4ccnc4C)CC3)cc2=O)cn1 [Example 110, 5-[4-(2-methylimidazol-1-yl)-1-piperidyl]-2-[[5-methyl-3-(6-methyl-3-pyridyl)isoxazol-4-yl]methyl]pyridazin-3-one] | 1.2 | 142 | 2.42 |
| Cc1ccc(-c2noc(C)c2Cn2ncc(N3CC(OC(C)C)C3)cc2=O)cn1 [Example 112, 5-(3-isopropoxyazetidin-1-yl)-2-[[5-methyl-3-(6-methyl-3-pyridyl)isoxazol-4-yl]methyl]pyridazin-3-one] | 38 | 101 | 2.01 |
| CCOC1CN(c2cnn(Cc3c(-c4ccc(Cl)nc4)noc3C)c(=O)c2)C1 [Example 220, 2-((3-(6-chloropyridin-3-yl)-5-methyl-1,2-oxazol-4-yl)methyl)-5-(3-ethoxyazetidin-1-yl)pyridazin-3-one] | 25.3 | 118 | 2.18 |
| CCc1cc(-c2cnn(Cc3c(-c4ccc(C)nc4)noc3C)c(=O)c2)ccn1 [Example 196, 5-(2-ethyl-4-pyridyl)-2-((5-methyl-3-(6-methyl-3-pyridyl)isoxazol-4-yl)methyl)pyridazin-3-one] | 3.7 | 98 | 1.98 |
| Cc1onc(-c2ccc(Cl)nc2)c1Cn1ncc(-c2cnn(C)c2)cc1=O [Example 215, 2-((3-(6-chloropyridin-3-yl)-5-methylisoxazol-4-yl)methyl)-5-(1-methyl-1H-pyrazol-4-yl)pyridazin-3(2H)-one] | 50 | 119 | 2.19 |
| COc1ncc(-c2cnn(Cc3c(-c4ccc(C)nc4)noc3C)c(=O)c2)cc1Cl [Example 188, 5-(5-chloro-6-methoxypyridin-3-yl)-2-((5-methyl-3-(6-methylpyridin-3-yl)isoxazol-4-yl)methyl)pyridazin-3(2H)-one] | 8.6 | 210 | 3.1 |
| Cc1ncccc1N1CCN(c2cnn(Cc3c(-c4ccc(Cl)nc4)noc3C)c(=O)c2)CC1 [Example 285, 2-((3-(6-chloropyridin-3-yl)-5-methylisoxazol-4-yl)methyl)-5-(4-(2-methylpyridin-3-yl)piperazin-1-yl)pyridazin-3(2H)-one] | 2.6 | 84 | 1.84 |
| COc1ncc(-c2cnn(Cc3c(-c4ccc(Cl)nn4)noc3C)c(=O)c2)cc1Cl [Example 282, 5-(5-chloro-6-methoxypyridin-3-yl)-2-((3-(6-chloropyridazin-3-yl)-5-methylisoxazol-4-yl)methyl)pyridazin-3(2H)-one] | 1.5 | 166 | 2.66 |
| Cc1onc(-c2ccc(Cl)nc2)c1Cn1ncc(-c2cnn(C3CC3)c2)cc1=O [Example 222, 2-((3-(6-chloropyridin-3-yl)-5-methylisoxazol-4-yl)methyl)-5-(1-cyclopropyl-1H-pyrazol-4-yl)pyridazin-3(2H)-one] | 31.2 | 82 | 1.82 |

The remaining lines, values ahead:

| Ki [1] [nM] | Efficacy (GABA) % [2] [%] | Fold increase h-GABA-A α5β3γ2 oocyte [2] | Structure (SMILES) |
| --- | --- | --- | --- |
| 10 | 174 | 2.74 | Cc1ccc(-c2noc(C)c2Cn2ncc(N3CCN4C(=O)CCC4C3)cc2=O)cn1 (stereo not drawn) [Example 43, 2-(1-((5-methyl-3-(6-methylpyridin-3-yl)isoxazol-4-yl)methyl)-6-oxo-1,6-dihydropyridazin-4-yl)hexahydropyrrolo[1,2-a]pyrazin-6(2H)-one] |
| 8.6 | 87 | 1.87 | CCOC1CN(c2cnn(Cc3c(-c4ccc(C)nn4)noc3CF)c(=O)c2)C1 [Example 279, 5-(3-ethoxyazetidin-1-yl)-2-((5-(fluoromethyl)-3-(6-methylpyridazin-3-yl)isoxazol-4-yl)methyl)pyridazin-3(2H)-one] |
| 3.6 | 122 | 2.22 | Cc1ccc(-c2noc(C)c2Cn2ncc(N3CCC4(CC3)CC(F)CCO4)cc2=O)nn1 (single isomer, unassigned) [Example 327] |
| 13 | 167 | 2.67 | Cc1ccc(-c2noc(C)c2Cn2ncc(N3C[C@H]4COC[C@H]4C3)cc2=O)cn1 [Example 49, 5-[(3aR,6aS)-1,3,3a,4,6,6a-hexahydrofuro[3,4-c]pyrrol-5-yl]-2-[[5-methyl-3-(6-methyl-3-pyridyl)isoxazol-4-yl]methyl]pyridazin-3-one] |
| 9.8 | 152 | 2.52 | Cc1onc(-c2ncc(Cl)cc2F)c1Cn1ncc(N2CCN(C(=O)C3(C)CC3)CC2)cc1=O [Example 53, 2-[[3-(5-chloro-3-fluoro-2-pyridyl)-5-methyl-isoxazol-4-yl]methyl]-5-[4-(1-methylcyclopropanecarbonyl)piperazin-1-yl]pyridazin-3-one] |
| 56.2 | 198 | 2.98 | Cc1ccc(-c2noc(C)c2Cn2ncc(N3CC[C@H](C(=O)NC4CC4)C3)cc2=O)cn1 [Example 57, (3S)—N-cyclopropyl-1-[1-[[5-methyl-3-(6-methyl-3-pyridyl)isoxazol-4-yl]methyl]-6-oxo-pyridazin-4-yl]pyrrolidine-3-carboxamide] |
| 1.7 | 149 | 2.49 | Cc1ccc(-c2noc(C)c2Cn2ncc(N3CCC(c4ccnn4C)CC3)cc2=O)cn1 [Example 166, 2-[[5-methyl-3-(6-methyl-3-pyridyl)isoxazol-4-yl]methyl]-5-[4-(2-methylpyrazol-3-yl)-1-piperidyl]pyridazin-3-one] |
| 2.8 | 94 | 1.94 | Cc1ccc(-c2noc(C)c2Cn2ncc(N3CCC4(CCOCC4)CC3)cc2=O)nn1 [Example 247, 2-[[5-methyl-3-(6-methylpyridazin-3-yl)isoxazol-4-yl]methyl]-5-(3-oxa-9-azaspiro[5.5]undecan-9-yl)pyridazin-3-one] |
| 30.4 | 149 | 2.49 | Cc1ccc(-c2noc(C)c2Cn2ncc(N3CC4(CNC4)C3)cc2=O)cn1 [Example 77, 5-(2,6-diazaspiro[3.3]heptan-2-yl)-2-[[5-methyl-3-(6-methyl-3-pyridyl)isoxazol-4-yl]methyl]pyridazin-3-one] |
